Assays:
Jurkat cells [1] = experiment: Cell surface disulfide bond reduction: free sulfhydryl groups detected with iodoacetylbiotin and FITC-avidin; assay type: cell-based, human; details: 1 mM phosphine, 1 hour, relative to cells exposed to iodoacetylbiotin alone, FIG. 9
Experimental: To satisfy the requirement of chemical orthogonality, both participants in the reaction may not engage functional groups endogenous to cells. Triarylphosphines are mild reducing agents, which raises the possibility of disulfide bond reduction as an undesirable side reaction. We addressed this issue by incubating Jurkat cells with triarylphosphine, an intermediate in the synthesis of 47, and quantifying the appearance of free sulfhydryl groups on the cell surface with iodoacetylbiotin and FITC-avidin (FIG. 9). Following incubation, cells were pelleted washed with PBS, and diluted to a volume of 240 μl. Samples were combined with 60 μl of a solution of iodoacetylbiotin (5 mM in PBS), After incubation in the dark at room temperature for 1.5 hrs, the cells were washed with buffer, stained with FITC-avidin, and analyzed by flow cytometry.
After 1 hour in the presence of 1 mM triarylphosphine, no detectable increase in free sulfhydryl groups was observed relative to cells exposed to iodoacetylbiotin alone (FIG. 9). In a positive control experiment, Jurkat cells were incubated with the trialkylphosphine TCEP (1 mM, 1 hour, room temperature), a commercial disulfide bond reducing agent. […] Therefore, triarylphosphines are essentially unreactive toward disulfide bonds under these conditions, rendering ligation with azides the predominant pathway for reactivity.

Jurkat cells [2] = experiment: Competition with ManLev metabolism: cell surface ketone detection with biotin hydrazide and FITC-avidin, flow cytometry; assay type: cell-based, human; details: 3 days, increasing concentrations of acetylated ManAz (Ac4MA) with acetylated ManLev (Ac4ML), FIG. 3
Jurkat cells [3] = experiment: Cell surface azide expression: reaction with biotinylated phosphine, FITC-avidin staining, flow cytometry; assay type: cell-based, human
HeLa cells = experiment: Cell surface azide expression and growth after the modified Staudinger reaction in HeLa cells
Jurkat cells [4] = experiment: Growth of Jurkat cells incubated with ManAz for three days (cell counting); assay type: cell-based, human; details: ManAz at a range of concentrations, ManNAc as negative control, FIG. 1
Experimental: Jurkat cell cultures. Cell cultures of Jurkat were maintained in RPMI 1640 media (Gibco Laboratories, Grand Island, N.Y.) supplemented with 5% fetal bovine serum (FBS, Hyclone, Logan, Utah), 50 units/mL of penicillin and 50 μg/mL of streptomycin (Mediatech, Hemdon, Va.), in a humidified 5% CO2 atmosphere at 37° C. Cell densities were determined using a Coulter Counter-Z2 (Coulter, Miami, Fla.),
Treatment of cells with mannosamine derivatives. Cultures of Jurkat cells were seeded at a density of 1.25×10^5 cells/mL into 12-well tissue culture plates in a total volume of 2 mL of culture media. The appropriate amount of each sugar (1, 3, 20, 36, 37) in a solution of PBS was added and the cells were incubated for 3 d. Control wells containing no added sugar were also seeded with cells and incubated.
(§1) Toxicity was ascertained by incubating Jurkat cells, a human T-cell lymphoma cell line, with ManAz for three days at a range of concentrations, using the natural substrate ManNAc (1) as a negative control. Each experiment was performed in triplicate. The cells were counted to determine whether addition of 20 was inhibiting cell growth.

Jurkat cells [5] = experiment: Propidium iodide assay, percentage of viable cells by flow cytometry; assay type: cell-based, human; details: Jurkat cells after 3 days with ManAz, FIG. 2
Experimental: Flow cytometry. Flow cytometry analysis was performed on a Coulter EPICS® XL-MCL cytometer (Coulter, Miami, Fla.) using a 488 nm argon laser. At least 10^4 viable cells were analyzed from each sample. Dead cells were excluded from the analysis using forward/side scatter gating.
Propidium iodide assay. After growth in the presence of the appropriate sugars, cells were pelleted (3000×g, 2 min), washed twice with 1 mL avidin staining buffer (0.1% NaN3, 0.1% FBS in PBS, pH 7.4) and diluted to a volume of 300 μL. Immediately prior to flow cytometry analysis, 10 μL of propidium iodide solution (1 mM in PBS) was added to each sample.
as §1

cell surface = experiment: Side-by-side comparison with the cell surface ketone reaction; assay type: cell-based; details: same reagent concentrations
From the text: This may reflect either a faster reaction at the cell surface, or more efficient metabolism of azidosugar 20 as compared to the ketosugar. The azide has a major advantage over the ketone in that its reactivity is unique in a cellular context due its abiotic nature. Ketones, by contrast, abound inside cells in the form of metabolites such as pyruvic acid and oxaloacetate. It should be noted that the modified Staudinger reaction is chemically orthogonal to ketone ligations and should allow tandem modification of cell surfaces with the two chemistries.

O=C(O)CCP(CCC(=O)O)CCC(=O)O [TCEP]
free sulfhydryl groups on the cell surface (Jurkat cells [1]): dramatic increase in free cell-surface sulfhydryl groups

CC(=O)OC[C@H]1OC(OC(C)=O)[C@@H](NC(=O)CN=[N+]=[N-])[C@@H](OC(C)=O)[C@@H]1OC(C)=O (stereo partly drawn) [compound 36, 1,3,4,6-Tetra-O-acetyl-N-azidoacetylmannosamine]
fluorescence from ketone labeling (competition with acetylated ManLev) (Jurkat cells [2]): proportionately decreasing fluorescence | biotin moieties accumulated on the cell surface (Jurkat cells [3]; 40 μM acetylated 3 for 3 days, then 2 mM compound 5 for 3 hours): approximately 4.5 million | biotin moieties accumulated on the cell surface (Jurkat cells [3]; 40 AM acetylated 20 for 3 days, then 2 mM compound 47 for 3 hours): approximately 4.5 million | biotin moieties accumulated on the cell surface (Jurkat cells [3]; acetylated 20 for 3 days, then 1 mM compound 47 for 1 hour, calibrated with biotinylated beads): approximately 850,000 biotin moieties | fluorescence (biotin moieties on the cell surface, FITC-avidin) (Jurkat cells [3]; acetylated azidosugar 20 μM for 3 days, then compound 47 (1 mM in PBS, pH 7.4) 1 hr at room temperature, versus untreated cells, FIG. 5): dramatic increase in fluorescence | growth rate after the modified Staudinger reaction (HeLa cells; HeLa cells cultured for an additional 3 days after the reaction): no change in growth rate | fluorescence after azidosugar incubation and phosphine reaction (HeLa cells; HeLa cells, compared with the Jurkat result): responded similarly

[N-]=[N+]=NCC(=O)N[C@@H]1C(O)O[C@H](CO)[C@@H](O)[C@@H]1O (stereo partly drawn) [compound 20, N-azidoacetylmannosamine]
number of cells observed after 3 days of growth (Jurkat cells [4]): a decrease in the number of cells observed after 3 days of growth in a dose-dependent fashion | percentage of viable cells (Jurkat cells [5]): No significant change in the percentage of viable cells | fluorescence of azidosugar metabolism plus phosphine reaction versus ketosugar metabolism plus hydrazide reaction (cell surface): two-fold higher fluorescence

tunicamycin [reference compound]
fluorescence signal with tunicamycin added during azidosugar incubation (Jurkat cells [3]; tunicamycin present during incubation with the azidosugar): reduced

From US7939626B2, “Chemoselective ligation” (The Regents of the University of California, priority 2000, dated 2011)
